In patent US9540664B2, “Systems and methods for improving ethanol yield” (POET Research, Inc, priority 2011, dated 2017):
Like-named read-outs stand apart in the source and are kept apart here.

Key:
yeast [1] = test system: yeast
Method: The entire experiment was conducted in duplicate.
In this experiment, corn that was ground using a hammer mill to >90% fines was obtained from a nearby biorefinery. […] The slurry (˜70 mL) was prepared by weighing out the appropriate amount of corn and water into each individual reactor. Lactoside247™ was added at 2.5 ppm to prevent any lactic acid bacterial contamination. Urea was added ˜0.24 g/L (4 mM) for a nitrogen source.
A raw starch hydrolyzing enzyme blend was added at 0.2 g/L. Everything was added to the reactor in such a way that the final volume in the reactor was 70 mL. […] (88° F.). […] (82° F.). Samples were withdrawn at 0, 24, 48, 72, and 88 hr of fermentation and analyzed for sugars, glycerol, organic acids and ethanol using HPLC.
About 4 mL of sample was withdrawn at each time point. These samples were centrifuged at 4500 rpm for 2 min. The supernatant was then filtered through a 0.2 μpore size filter into HPLC vials. […] An aliquot (5 μL) of the sample was injected by the auto-injector onto a reverse phase column (HPX-87H from BioRad Laboratories) maintained at 50° C. Aqueous sulfuric acid at 0.005M was used as the mobile phase (eluent). […] The components (sugars, organic acids, and ethanol) were identified and quantified using Waters Empower software.

yeast [2] = conditions: 24 hours at 88° F.
Method: The samples were serially diluted and appropriate dilutions were plated on to Yeast extract-Malt extract (YM) agar plates. The plates were incubated at 30° C. and the colonies formed were counted after 48 h. The results were expressed as colony forming units (CFU) per mL.
Samples tested include a control with no acetic acid addition, and samples treated at 1200 ppm and 2400 ppm respectively.

yeast [3] = conditions: 20% w/v sucrose
Method: For this example, a laboratory media with sucrose was used. The media used was Yeast extract-Peptone (YP) broth supplemented with 20% w/v (200 g/L) sucrose. An acetic acid dose response (at 500, 1000, 1500, 2000, 2500, and 3000 ppm) was conducted. Control with no added acetic acid was also included. The fermenters were pH adjusted to 4.5 and after yeast inoculation the fermentations were carried out for 30 hours at 32° C. After 30 h, samples were withdrawn and analyzed for sugars, organic acids, and ethanol. Samples were also withdrawn at 24 h and yeast growth was monitored by optical density measurement at 600 nm.

yeast [4] = conditions: 320 gal per 720,000 gal or 250 gal per 550,000 gal fermentor, added 1.5 hours into fill, 36% dry solids
Method: In commercial ethanol production facilities, acetic acid is thought to be inhibitory to yeast growth and fermentation. […] The dosage of acetic acid used is 320 gal per 720,000 gal fermentor or 250 gal per 550,000 gal fermentor and the acetic acid is added at 1.5 hours into fill of the fermentor (which would be about 1 hour after yeast inoculation from the yeast conditioning tank). […] A few batches were conducted with added acetic acid (primed) and a few batches were operated normally without additional acetic acid.

CC(=O)O [acetic acid]
effect on ethanol titers (yeast [1]; 0.12% to 0.24% (1200-2400 ppm) acetic acid, initial pH 4.7 or 5.2): increased ethanol titers
effect on ethanol production (yeast [1]; highest concentration tested 0.37% w/v, especially at pH 4.2): inhibitory effect
effect on ethanol production (yeast [1]; initial pH 4.2): No major benefits
maximum reduction in glycerol (yeast [1]; initial pH 4.7, initial acetic acid 0.24% w/v): over 50%
highest ethanol titer (yeast [1]; initial pH 4.7, initial acetic acid 0.24% w/v, 36% dry solids, 88 hr fermentation): 20.5 % v/v
reduction in cell counts (yeast [2]; initial acetic acid 1200 ppm): About 24%
reduction in cell counts (yeast [2]; initial acetic acid 2400 ppm): ~32%
effect on ethanol conversion efficiency (yeast [3]; above 2500 ppm acetic acid, pH 4.5): inhibitory to fermentation
effect on ethanol conversion efficiency (yeast [3]; initial acetic acid between 2000 and 2500 ppm, pH 4.5, 30 hours at 32° C): stimulatory effect
ethanol production, primed vs no priming (yeast [4]): increased ethanol production
glycerol production, primed vs no priming (yeast [4]): decreases glycerol production significantly
